Consider 13 compounds from ChEMBL document CHEMBL2321696, “Azaindole-Based Inhibitors of Cdc7 Kinase: Impact of the Pre-DFG Residue, Val 195” (ACS Med Chem Lett, 2013).

Molecules are shown by their SMILES.

Cell division cycle 7-related protein kinase, sequence (O00311 whole entry): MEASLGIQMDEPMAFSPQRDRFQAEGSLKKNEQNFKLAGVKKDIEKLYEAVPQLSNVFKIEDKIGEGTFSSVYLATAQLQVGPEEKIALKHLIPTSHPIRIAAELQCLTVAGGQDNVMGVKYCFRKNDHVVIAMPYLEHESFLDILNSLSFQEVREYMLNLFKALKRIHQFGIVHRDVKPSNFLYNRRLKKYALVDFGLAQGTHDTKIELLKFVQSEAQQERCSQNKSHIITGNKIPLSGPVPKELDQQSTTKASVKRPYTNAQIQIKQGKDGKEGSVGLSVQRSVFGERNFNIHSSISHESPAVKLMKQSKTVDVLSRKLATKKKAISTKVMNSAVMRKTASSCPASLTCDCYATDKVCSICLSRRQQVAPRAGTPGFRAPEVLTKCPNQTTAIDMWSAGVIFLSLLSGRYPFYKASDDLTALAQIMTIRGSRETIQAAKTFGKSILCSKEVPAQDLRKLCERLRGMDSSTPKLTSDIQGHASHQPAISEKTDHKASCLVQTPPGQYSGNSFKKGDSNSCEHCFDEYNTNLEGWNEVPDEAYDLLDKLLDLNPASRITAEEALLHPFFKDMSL
Glycogen synthase kinase-3 beta, sequence (P49841 whole entry): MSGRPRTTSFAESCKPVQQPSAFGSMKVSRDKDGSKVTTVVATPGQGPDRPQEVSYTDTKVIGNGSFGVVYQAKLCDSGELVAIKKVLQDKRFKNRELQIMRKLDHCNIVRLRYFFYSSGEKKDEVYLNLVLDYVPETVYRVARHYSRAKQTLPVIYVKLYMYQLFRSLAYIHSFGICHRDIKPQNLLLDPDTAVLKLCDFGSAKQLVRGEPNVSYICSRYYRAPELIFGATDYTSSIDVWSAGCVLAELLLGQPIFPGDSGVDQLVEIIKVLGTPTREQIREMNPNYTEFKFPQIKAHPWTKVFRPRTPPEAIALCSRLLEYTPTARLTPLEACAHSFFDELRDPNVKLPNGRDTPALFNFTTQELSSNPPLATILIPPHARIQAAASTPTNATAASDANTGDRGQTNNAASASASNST

The first assay addresses Cell division cycle 7-related protein kinase (Homo sapiens, UniProt O00311). Briefly: Inhibition of human Cdc7 using biotin-C6linker-TPSDSLIYDDGLS as substrate after 1 hr.
Usually Ki stands for a measure of affinity in units of concentration, obtained from inhibition or displacement. Regarding `O[C@H]1CC[C@H](Nc2cc(-c3c[nH]c4ncccc34)cc(F)n2)CC1`, affinity was put at a Ki of 1.7 nM.
On the same count and under the same terms, to `Cc1cc(-c2c[nH]c3ncccc23)cc(N[C@H]2CC[C@H](O)CC2)n1` belongs 27 nM; to `N#Cc1cc(-c2c[nH]c3ncccc23)cc(NCc2ccccc2)n1`, 1.4 nM.
As for `N[C@H]1CC[C@H](Nc2cc(-c3c[nH]c4ncccc34)cc(F)n2)CC1`, affinity was put at a Ki of 3.4 nM.
On the same count and under the same terms, then `NC(=O)c1cc(-c2c[nH]c3ncccc23)cc(N[C@H]2CC[C@H](O)CC2)n1`, with 67 nM; and `Clc1cc(-c2c[nH]c3ncccc23)cc(NC2CCCCC2)n1`, with 0.9 nM; and `Fc1cc(-c2c[nH]c3ncccc23)cc(NC2CCCCC2)n1`, with 3.2 nM.
Same read-out and setting: to `Cc1cc(-c2c[nH]c3ncccc23)cc(NC2CCCCC2)n1` belongs 13 nM; to `Cc1cc(-c2c[nH]c3ncccc23)cc(NCc2ccccc2)n1`, 15 nM.
Still for that read-out and setting: to `N#Cc1cc(-c2c[nH]c3ncccc23)cc(NC2CCCCC2)n1` belongs 7.7 nM; to `c1cnc2[nH]cc(-c3ccnc(NC4CCCCC4)c3)c2c1`, 8.7 nM.
As to `N#Cc1cc(-c2c[nH]c3ncccc23)cc(N[C@H]2CC[C@H](O)CC2)n1`, the inhibition constant (Ki) came out at 5.5 nM.
Still for that read-out and setting: then `O=c1cc(-c2c[nH]c3ncccc23)cc(NC2CCCCC2)[nH]1`, with 0.28 nM.

A further assay addresses Glycogen synthase kinase-3 beta (Homo sapiens, UniProt P49841). Nature of the assay: Inhibition of human recombinant GSK3beta.
For `Clc1cc(-c2c[nH]c3ncccc23)cc(NC2CCCCC2)n1`, the Ki was 58 nM.
